# In ChEMBL document CHEMBL1201862, “PubChem BioAssay data set” (2004):
# Calls of active or inactive are those of the source.
# Legend:
# [1] = biological target: T1, Luciferin 4-monooxygenase (Photinus pyralis, UniProt P08659); assay: firefly luciferase enzyme inhibitors, dose response, biochemical, dry powder samples, plate reader (AID 588451)
# [2] = biological target: Cyclin-dependent kinase 5/CDK5 activator 1 (Homo sapiens, UniProt Q00535); assay: CDK5/p35 kinase inhibitors, dose response, biochemical, cherry-picked samples, set 2 (AID 504545)
# Chain of Cyclin-dependent kinase 5/CDK5 activator 1 (Q00535 whole entry): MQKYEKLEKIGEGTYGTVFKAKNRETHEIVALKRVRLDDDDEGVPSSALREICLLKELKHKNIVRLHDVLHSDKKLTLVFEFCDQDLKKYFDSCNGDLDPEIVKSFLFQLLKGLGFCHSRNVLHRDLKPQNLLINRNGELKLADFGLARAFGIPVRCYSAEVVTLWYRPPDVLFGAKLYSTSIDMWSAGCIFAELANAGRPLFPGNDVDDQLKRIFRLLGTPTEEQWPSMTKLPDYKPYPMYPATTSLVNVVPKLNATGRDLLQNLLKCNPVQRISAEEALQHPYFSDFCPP
# Chain of Cyclin-dependent kinase 5/CDK5 activator 1 (Q15078 whole entry, further chain): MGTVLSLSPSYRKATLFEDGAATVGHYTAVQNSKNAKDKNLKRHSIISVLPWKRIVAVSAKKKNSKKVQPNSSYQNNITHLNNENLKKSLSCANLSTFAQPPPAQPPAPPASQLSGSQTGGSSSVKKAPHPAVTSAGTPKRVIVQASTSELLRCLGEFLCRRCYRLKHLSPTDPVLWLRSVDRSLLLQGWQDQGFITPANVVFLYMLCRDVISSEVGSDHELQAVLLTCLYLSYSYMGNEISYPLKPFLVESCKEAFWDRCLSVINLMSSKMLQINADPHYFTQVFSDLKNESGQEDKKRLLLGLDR
# H4 [3] = assay: Amyloid Precursor 5' UTR neuroblastoma cell reporter line Measured in Cell-Based System Using Plate Reader - 2078-04_Inhibitor_Dose_DryPowder_Activity. [Related pubchem assays (depositor defined):AID488894]; format: functional; settings: Homo sapiens
# Paired box protein Pax-8 = Paired box protein Pax-8 (Homo sapiens, UniProt Q06710); assay: inhibitors of PAX8-driven TPO luciferase reporter, dose response, RMG-I cells, cherry-pick (AID 687027); format: functional, cell-based;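 also: luciferase reporter driven by Pax8 target thyroperoxidase promoter measured by SteadyGlo luminescence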
# Chain of Paired box protein Pax-8 (Q06710 whole entry): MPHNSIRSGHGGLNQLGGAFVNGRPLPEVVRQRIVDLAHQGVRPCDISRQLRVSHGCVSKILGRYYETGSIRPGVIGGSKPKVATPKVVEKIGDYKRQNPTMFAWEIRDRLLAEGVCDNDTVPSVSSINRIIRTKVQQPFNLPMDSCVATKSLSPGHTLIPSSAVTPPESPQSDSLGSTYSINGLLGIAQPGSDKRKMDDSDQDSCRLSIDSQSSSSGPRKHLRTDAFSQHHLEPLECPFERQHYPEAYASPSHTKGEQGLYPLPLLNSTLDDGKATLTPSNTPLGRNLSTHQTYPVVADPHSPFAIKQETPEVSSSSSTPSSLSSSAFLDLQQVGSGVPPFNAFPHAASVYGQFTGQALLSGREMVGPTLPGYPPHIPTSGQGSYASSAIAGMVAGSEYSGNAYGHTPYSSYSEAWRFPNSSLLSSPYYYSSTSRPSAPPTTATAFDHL
# [4] = biological target: T1, Luciferin 4-monooxygenase; assay: firefly luciferase enzyme inhibitors, dose response, biochemical, luminescence (AID 1891)
# [5] = Luminescence Cell-Based Dose Confirmation HTS to Identify Inhibitors of Platelet Dense Granule Release. [Related pubchem assays: 1663 (Primary HTS), 1678 (Summary of Project)]; format: functional
# H4 [6] = assay: Inhibitors of Prion Protein 5' UTR mRNA Measured in Cell-Based System Using Plate Reader - 2078-01_Inhibitor_Dose_DryPowder_Activity. [Related pubchem assays (depositor defined):AID488894]; format: functional; settings: Homo sapiens
# [7] = non-specific cell cytotoxicity, dose response, cytotoxicity control for PAX8 inhibitor project, plate reader, dry powder samples (AID 743021); format: functional, cell-based
# [8] = biological target: T2, Sentrin-specific protease 8 (Homo sapiens, UniProt Q96LD8); assay: SENP8 protease inhibitors, SAR follow-up, biochemical, luminescence, set 2 (AID 588601); format: functional
# T2 sequence (Q96LD8 whole entry): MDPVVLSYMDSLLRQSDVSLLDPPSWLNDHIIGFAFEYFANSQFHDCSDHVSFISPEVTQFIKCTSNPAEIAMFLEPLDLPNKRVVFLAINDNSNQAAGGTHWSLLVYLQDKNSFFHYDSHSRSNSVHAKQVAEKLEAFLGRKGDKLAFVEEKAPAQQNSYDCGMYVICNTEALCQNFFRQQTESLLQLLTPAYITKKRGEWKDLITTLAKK
# [9] = biological target: T3, Sentrin-specific protease 7 (Homo sapiens, UniProt Q9BQF6); assay: SENP7 protease inhibitors, SAR follow-up, biochemical, luminescence, set 2 (AID 588600); format: functional
# T3 sequence (Q9BQF6 whole entry): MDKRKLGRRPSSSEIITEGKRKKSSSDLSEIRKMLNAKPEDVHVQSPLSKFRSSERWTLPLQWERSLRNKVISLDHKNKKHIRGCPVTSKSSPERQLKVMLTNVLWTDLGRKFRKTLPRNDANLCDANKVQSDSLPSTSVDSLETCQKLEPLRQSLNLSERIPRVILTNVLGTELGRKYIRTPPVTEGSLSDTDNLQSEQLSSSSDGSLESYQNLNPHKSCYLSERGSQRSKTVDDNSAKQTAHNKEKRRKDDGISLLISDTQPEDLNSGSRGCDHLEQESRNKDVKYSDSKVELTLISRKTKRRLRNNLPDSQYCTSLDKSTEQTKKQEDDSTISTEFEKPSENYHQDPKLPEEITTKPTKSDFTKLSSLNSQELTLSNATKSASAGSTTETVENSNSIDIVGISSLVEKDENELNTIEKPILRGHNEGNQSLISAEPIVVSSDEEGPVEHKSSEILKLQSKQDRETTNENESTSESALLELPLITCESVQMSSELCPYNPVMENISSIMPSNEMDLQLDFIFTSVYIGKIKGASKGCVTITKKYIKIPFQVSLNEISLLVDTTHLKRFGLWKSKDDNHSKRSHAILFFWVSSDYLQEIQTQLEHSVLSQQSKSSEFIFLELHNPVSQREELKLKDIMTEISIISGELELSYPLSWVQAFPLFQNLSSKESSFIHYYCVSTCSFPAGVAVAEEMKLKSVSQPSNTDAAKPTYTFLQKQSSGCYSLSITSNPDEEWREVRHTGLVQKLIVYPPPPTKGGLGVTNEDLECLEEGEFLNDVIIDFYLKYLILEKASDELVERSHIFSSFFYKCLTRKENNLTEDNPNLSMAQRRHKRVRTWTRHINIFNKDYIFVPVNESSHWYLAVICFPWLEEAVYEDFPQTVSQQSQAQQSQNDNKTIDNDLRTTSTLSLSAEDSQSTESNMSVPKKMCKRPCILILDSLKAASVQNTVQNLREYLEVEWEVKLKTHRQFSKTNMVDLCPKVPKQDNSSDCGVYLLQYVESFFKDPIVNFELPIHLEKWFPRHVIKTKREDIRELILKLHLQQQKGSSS
# [10] = biological target: T4, Sentrin-specific protease 6 (Homo sapiens, UniProt Q9GZR1); assay: SENP6 protease inhibitors, SAR follow-up, biochemical, luminescence, set 2 (AID 588598); format: functional
# T4 sequence (Q9GZR1 whole entry): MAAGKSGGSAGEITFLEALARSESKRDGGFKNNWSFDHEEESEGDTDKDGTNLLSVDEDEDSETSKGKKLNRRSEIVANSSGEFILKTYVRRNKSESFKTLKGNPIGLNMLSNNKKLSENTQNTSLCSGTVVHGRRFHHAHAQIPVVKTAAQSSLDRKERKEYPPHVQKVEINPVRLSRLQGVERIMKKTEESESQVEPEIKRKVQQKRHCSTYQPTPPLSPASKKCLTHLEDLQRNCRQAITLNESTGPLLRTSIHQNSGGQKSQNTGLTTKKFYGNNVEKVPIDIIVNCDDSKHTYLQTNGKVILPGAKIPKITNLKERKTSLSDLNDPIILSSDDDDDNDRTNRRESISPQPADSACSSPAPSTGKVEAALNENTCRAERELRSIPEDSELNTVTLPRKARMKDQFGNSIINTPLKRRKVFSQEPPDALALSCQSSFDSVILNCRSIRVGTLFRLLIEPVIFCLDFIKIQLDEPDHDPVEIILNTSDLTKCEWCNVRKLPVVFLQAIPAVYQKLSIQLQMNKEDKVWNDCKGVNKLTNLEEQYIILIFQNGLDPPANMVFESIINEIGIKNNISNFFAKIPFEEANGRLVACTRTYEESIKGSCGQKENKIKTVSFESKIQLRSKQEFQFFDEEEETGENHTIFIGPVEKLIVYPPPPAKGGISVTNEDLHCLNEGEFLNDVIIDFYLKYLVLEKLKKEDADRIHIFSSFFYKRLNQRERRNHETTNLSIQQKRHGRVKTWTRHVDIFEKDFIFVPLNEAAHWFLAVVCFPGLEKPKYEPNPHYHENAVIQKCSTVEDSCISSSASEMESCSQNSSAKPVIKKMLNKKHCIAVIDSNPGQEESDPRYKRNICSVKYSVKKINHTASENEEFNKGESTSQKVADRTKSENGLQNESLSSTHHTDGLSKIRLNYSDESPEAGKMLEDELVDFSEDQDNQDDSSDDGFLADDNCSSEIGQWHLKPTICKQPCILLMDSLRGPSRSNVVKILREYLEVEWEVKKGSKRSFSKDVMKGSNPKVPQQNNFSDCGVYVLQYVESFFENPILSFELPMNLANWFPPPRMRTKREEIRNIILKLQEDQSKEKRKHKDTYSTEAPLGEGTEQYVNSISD
# Caspase-3 = biological target: T5, Caspase-3 (Homo sapiens, UniProt P42574); assay: caspase-3 inhibitors as off-family protease, SAR follow-up, selectivity assay for SENP protease inhibitor project, biochemical, luminescence, set 2 (AID 588599); format: functional
# T5 sequence (P42574 whole entry): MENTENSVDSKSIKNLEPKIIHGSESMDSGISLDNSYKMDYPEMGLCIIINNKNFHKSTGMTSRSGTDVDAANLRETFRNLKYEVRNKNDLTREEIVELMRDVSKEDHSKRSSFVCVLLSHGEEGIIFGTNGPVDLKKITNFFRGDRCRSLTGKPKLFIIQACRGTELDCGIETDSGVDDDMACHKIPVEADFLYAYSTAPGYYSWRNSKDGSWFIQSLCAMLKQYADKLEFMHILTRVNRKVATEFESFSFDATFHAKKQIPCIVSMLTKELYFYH
# [11] = biological target: Melanin-concentrating hormone receptor 1 (Homo sapiens, UniProt Q99705); assay: Late-stage fluorescence-based counterscreen for antagonists of the G-protein coupled receptor 7 (GPR7): cell-based dose response assay to identify antagonists of the melanin-concentrating hormone receptor 1 (MCHR1) Set 5.; format: functional
# Chain of Melanin-concentrating hormone receptor 1 (Q99705 whole entry): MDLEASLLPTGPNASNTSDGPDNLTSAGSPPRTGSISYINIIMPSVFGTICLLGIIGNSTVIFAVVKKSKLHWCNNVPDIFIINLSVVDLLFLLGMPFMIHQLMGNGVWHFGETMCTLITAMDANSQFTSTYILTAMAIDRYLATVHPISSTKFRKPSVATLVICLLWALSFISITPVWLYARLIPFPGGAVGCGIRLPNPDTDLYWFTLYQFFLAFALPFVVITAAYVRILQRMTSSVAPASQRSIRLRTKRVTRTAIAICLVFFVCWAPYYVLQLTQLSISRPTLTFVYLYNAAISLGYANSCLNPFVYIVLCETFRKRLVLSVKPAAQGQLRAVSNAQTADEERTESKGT
# Nonstructural protein 1 = Nonstructural protein 1 (Influenza A virus, UniProt Q194T2); format: functional, Influenza A virus (A/California/07/2009(H1N1))
# Chain of Nonstructural protein 1 (Q194T2 whole entry): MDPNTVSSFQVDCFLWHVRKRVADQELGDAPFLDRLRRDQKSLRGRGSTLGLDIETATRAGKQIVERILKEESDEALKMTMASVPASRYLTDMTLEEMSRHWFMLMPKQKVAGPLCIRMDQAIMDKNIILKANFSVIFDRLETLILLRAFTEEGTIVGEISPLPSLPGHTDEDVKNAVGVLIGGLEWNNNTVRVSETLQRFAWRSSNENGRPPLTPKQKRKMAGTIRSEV
# ELAV-like protein 1 = ELAV-like protein 1 (Homo sapiens, UniProt Q15717); assay: Identify HuR specific inhibitors.; format: functional
# Chain of ELAV-like protein 1 (Q15717 whole entry): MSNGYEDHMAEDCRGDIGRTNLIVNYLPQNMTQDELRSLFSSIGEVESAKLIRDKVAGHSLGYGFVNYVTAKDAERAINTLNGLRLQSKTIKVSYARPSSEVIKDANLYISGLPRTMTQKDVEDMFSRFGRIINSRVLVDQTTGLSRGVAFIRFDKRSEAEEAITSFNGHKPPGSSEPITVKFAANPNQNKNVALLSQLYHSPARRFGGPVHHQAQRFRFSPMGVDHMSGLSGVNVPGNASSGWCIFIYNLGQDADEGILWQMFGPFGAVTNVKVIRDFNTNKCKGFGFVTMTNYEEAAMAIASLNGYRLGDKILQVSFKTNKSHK
# Protein S100-A4 = Protein S100-A4 (Homo sapiens, UniProt P26447); assay: S100A4-myosin IIA binding inhibitor potency, dose response, biochemical, fluorescence polarization, cherry-picked hits (AID 687001); format: functional
# Chain of Protein S100-A4 (P26447 whole entry): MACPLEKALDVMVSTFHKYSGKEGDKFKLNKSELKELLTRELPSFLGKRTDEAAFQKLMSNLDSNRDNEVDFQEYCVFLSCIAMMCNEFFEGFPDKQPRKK
# [12] = biological target: Protein disulfide-isomerase (Homo sapiens, UniProt P07237); assay: PDI inhibitors, insulin aggregation turbidity, dose response, biochemical, absorbance, cherry-picked samples (AID 602350); format: functional
# Chain of Protein disulfide-isomerase (P07237 whole entry): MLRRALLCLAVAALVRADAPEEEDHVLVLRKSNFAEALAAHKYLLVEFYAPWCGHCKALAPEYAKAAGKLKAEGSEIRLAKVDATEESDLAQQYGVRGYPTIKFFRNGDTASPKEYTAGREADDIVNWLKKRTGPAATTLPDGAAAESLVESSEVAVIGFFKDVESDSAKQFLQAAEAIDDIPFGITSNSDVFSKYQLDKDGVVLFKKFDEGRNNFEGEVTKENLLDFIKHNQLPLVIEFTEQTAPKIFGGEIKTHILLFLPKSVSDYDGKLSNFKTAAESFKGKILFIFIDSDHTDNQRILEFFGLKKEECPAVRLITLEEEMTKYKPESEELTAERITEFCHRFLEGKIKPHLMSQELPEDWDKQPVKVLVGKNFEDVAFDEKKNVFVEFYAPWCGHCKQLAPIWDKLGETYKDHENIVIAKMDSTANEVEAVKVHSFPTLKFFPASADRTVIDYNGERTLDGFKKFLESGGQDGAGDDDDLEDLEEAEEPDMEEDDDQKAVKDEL
# T1 sequence (P08659 whole entry): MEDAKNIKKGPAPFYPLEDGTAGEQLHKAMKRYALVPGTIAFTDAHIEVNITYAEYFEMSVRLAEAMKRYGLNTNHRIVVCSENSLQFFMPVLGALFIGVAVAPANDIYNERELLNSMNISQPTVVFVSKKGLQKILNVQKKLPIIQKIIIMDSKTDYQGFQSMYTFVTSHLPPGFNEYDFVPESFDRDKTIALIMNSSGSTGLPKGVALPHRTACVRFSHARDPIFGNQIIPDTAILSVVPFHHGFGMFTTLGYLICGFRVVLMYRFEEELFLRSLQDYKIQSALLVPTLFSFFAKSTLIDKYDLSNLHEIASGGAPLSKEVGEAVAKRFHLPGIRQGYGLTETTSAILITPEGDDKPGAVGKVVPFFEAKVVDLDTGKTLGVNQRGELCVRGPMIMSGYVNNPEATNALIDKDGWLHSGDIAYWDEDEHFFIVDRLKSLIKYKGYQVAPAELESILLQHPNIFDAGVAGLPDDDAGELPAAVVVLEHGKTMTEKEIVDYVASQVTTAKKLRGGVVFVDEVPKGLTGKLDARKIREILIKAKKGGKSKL
compound,measurement,setting,value
Cc1ccc(C(=O)O/N=C(\N)c2ccccn2)cc1,AC50,[1],0.06 µM (active)
same,AC50,[2],39 µM (active)
same,AC50,H4 [3],0.244 µM (active)
same,AC50,Paired box protein Pax-8,15.5 µM (active)
same,EC50,[4],0.994 µM (active)
same,EC50,[5],1.6 µM (active)
same,AC50,H4 [6],0.731 µM (active)
same,AC50,[7],29.9 µM (active)
Cc1ccc2nc(NC(=O)c3cccc(-n4cnnn4)c3)sc2c1,IC50,[8],> 99 µM (inactive)
same,IC50,[9],> 99 µM (inactive)
same,IC50,[10],> 99 µM (inactive)
same,IC50,Caspase-3,> 99 µM (inactive)
COc1ccc(Oc2c(Cl)cnn(Cc3ccccc3OC)c2=O)cc1,IC50,[11],6.63 µM (active)
COc1cccc2c1C(=O)c1c(O)c3c(c(O)c1C2=O)CC(O)(C(C)=NO)CC3OC1CC(N)C(O)C(C)O1 (configuration not stated),IC50,Nonstructural protein 1,32 µM (active)
same,IC50,ELAV-like protein 1,21.7 µM (active)
same,AC50,Protein S100-A4,0.406 µM (active)
same,AC50,[12],16.9 µM (active)
